# According to ChEMBL document CHEMBL1201862, “PubChem BioAssay data set” (2004):
#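 How tested: cells in 96-well plates exposed to compound for 48 hours at five concentrations. Abbreviation: GI50, concentration required for 50% inhibition of growth.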 Active and inactive are the calls of the source. Rule as the data show it: active = GI50 up to about 1.1 µM and inactive = higher.
# Experiments:
# Experiment in all cases: growth of human tumour cells (NCI), 48 h
# [1] = test system: NCI-H522
# [2] = test system: SNB-19
# [3] = test system: HOP-92
# [4] = test system: U-251
# [5] = test system: K562
# [6] = test system: HCT-15
# [7] = test system: TK-10
# [8] = test system: NCI/ADR-RES
# [9] = test system: Malme-3M
# [10] = test system: UACC-62
# [11] = test system: SNB-75
# [12] = test system: NCI-H23
# [13] = test system: HCC 2998
# [14] = test system: ACHN
# [15] = test system: NCI-H226
# [16] = test system: CAKI-1
# [17] = test system: CCRF-CEM
# [18] = test system: UACC-257
# [19] = test system: RPMI-8226
# [20] = test system: RXF 393
Structure (SMILES),GI50 [1],GI50 [2],GI50 [3],GI50 [4],GI50 [5],GI50 [6] [µM],GI50 [7],GI50 [8],GI50 [9],GI50 [10],GI50 [11],GI50 [12],GI50 [13],GI50 [14],GI50 [15],GI50 [16],GI50 [17],GI50 [18],GI50 [19],GI50 [20]
COc1cccc([C@H]2CC(=O)c3cc4c(cc3N2)OCO4)c1,0.238 µM (active),0.312 µM (active),19.1 µM (inactive),0.393 µM (active),1.3 µM (inactive),0.341,0.979 µM (active),0.296 µM (active),0.671 µM (active),0.406 µM (active),> 100 µM (inactive),0.451 µM (active),0.434 µM (active),0.847 µM (active),0.263 µM (active),0.384 µM (active),0.49 µM (active),0.91 µM (active),0.579 µM (active),0.171 µM (active)
CC(C)Cn1cnc2c(Cl)nc3ccccc3c21,50.9 µM (inactive),> 100 µM (inactive),21.8 µM (inactive),65.9 µM (inactive),38.4 µM (inactive),53.3,53.6 µM (inactive),61.2 µM (inactive),> 100 µM (inactive),40.9 µM (inactive),18.7 µM (inactive),59.3 µM (inactive),73.3 µM (inactive),30.2 µM (inactive),40 µM (inactive),45.8 µM (inactive),53.2 µM (inactive),> 100 µM (inactive),42.9 µM (inactive),51.8 µM (inactive)
CC(C)Oc1c(N(Cc2ccccc2)c2ccccc2C2SCCCS2)c(=O)c1=O,1.88 µM (inactive),3.9 µM (inactive),6.81 µM (inactive),4.4 µM (inactive),4.05 µM (inactive),3.71,8.63 µM (inactive),1.75 µM (inactive),2.9 µM (inactive),4.89 µM (inactive),2.51 µM (inactive),3.97 µM (inactive),3.5 µM (inactive),5.81 µM (inactive),6.05 µM (inactive),5.79 µM (inactive),5.87 µM (inactive),6.9 µM (inactive),4.24 µM (inactive),4.88 µM (inactive)
Cc1c(C#N)c2nnn(-c3cccc(Cl)c3)c(=O)n2c1-c1ccccc1,1.93 µM (inactive),10.3 µM (inactive),26 µM (inactive),2.33 µM (inactive),0.541 µM (active),3.83,9.91 µM (inactive),3.1 µM (inactive),9.48 µM (inactive),4.43 µM (inactive),1.76 µM (inactive),8.77 µM (inactive),3.48 µM (inactive),6.4 µM (inactive),2.25 µM (inactive),6.62 µM (inactive),3.66 µM (inactive),26.3 µM (inactive),0.637 µM (active),1.85 µM (inactive)
O=C1Nc2ccc(Br)cc2/C1=N/c1ccc2c(c1)OCO2,19.1 µM (inactive),74.5 µM (inactive),50.1 µM (inactive),12.7 µM (inactive),24.4 µM (inactive),19.8,27.3 µM (inactive),27.5 µM (inactive),18.7 µM (inactive),15.7 µM (inactive),31.6 µM (inactive),37.2 µM (inactive),15.7 µM (inactive),23.7 µM (inactive),24.3 µM (inactive),20.3 µM (inactive),14.7 µM (inactive),18.3 µM (inactive),18.5 µM (inactive),20.3 µM (inactive)
ClC(Cl)(Cl)C1=N[C@H]2[C@H](Br)[C@@H]3O[C@@H](c4ccccc4)[C@H](c4ccccc4)O[C@@H]3[C@H]2O1,10.9 µM (inactive),27.4 µM (inactive),16.5 µM (inactive),17.1 µM (inactive),21.2 µM (inactive),27.2,20.4 µM (inactive),25.7 µM (inactive),19.2 µM (inactive),16.3 µM (inactive),20.9 µM (inactive),21 µM (inactive),15.2 µM (inactive),17.3 µM (inactive),19.8 µM (inactive),16 µM (inactive),17.7 µM (inactive),18.3 µM (inactive),16.2 µM (inactive),20.5 µM (inactive)
C[C@]12CC[C@H]3[C@@H](CC=C4C[C@@H](N5CCCC5)CC[C@@]43C)[C@@H]1C[C@H](N1CCOCC1)[C@@H]2O,> 100 µM (inactive),> 100 µM (inactive),> 100 µM (inactive),> 100 µM (inactive),22.5 µM (inactive),> 100,> 100 µM (inactive),> 100 µM (inactive),> 100 µM (inactive),> 100 µM (inactive),> 100 µM (inactive),> 100 µM (inactive),> 100 µM (inactive),> 100 µM (inactive),> 100 µM (inactive),> 100 µM (inactive),> 100 µM (inactive),> 100 µM (inactive),> 100 µM (inactive),> 100 µM (inactive)
CC(=O)OC1COC(n2c(-c3ccc(Cl)cc3)cc(-c3ccccc3)c(C#N)c2=S)C(OC(C)=O)C1OC(C)=O (stereo not given),40.5 µM (inactive),31 µM (inactive),12.9 µM (inactive),3.78 µM (inactive),12.2 µM (inactive),23.4,31.6 µM (inactive),14.1 µM (inactive),49.9 µM (inactive),19.1 µM (inactive),15.7 µM (inactive),12.2 µM (inactive),31.6 µM (inactive),17.5 µM (inactive),16.3 µM (inactive),19.7 µM (inactive),31.8 µM (inactive),41.6 µM (inactive),29.9 µM (inactive),12.9 µM (inactive)
O=C(NC1=NC2C=CC([N+](=O)[O-])=CC2S1)C(=O)Nn1c(S)nc2ccccc2c1=O (stereo not given),47.3 µM (inactive),24.3 µM (inactive),29.4 µM (inactive),66.7 µM (inactive),64.1 µM (inactive),21.2,63 µM (inactive),> 100 µM (inactive),80 µM (inactive),92 µM (inactive),47.1 µM (inactive),40.7 µM (inactive),> 100 µM (inactive),24.1 µM (inactive),18.8 µM (inactive),40.4 µM (inactive),45.9 µM (inactive),> 100 µM (inactive),50.6 µM (inactive),50.6 µM (inactive)
CC1OC(OC2C(O[C@H]3CC[C@@]4(C)C(=CC[C@H]5[C@@H]6C[C@@H]7O[C@]8(CC[C@@H](C)CO8)[C@@H](C)[C@@H]7[C@@]6(C)CC[C@@H]54)C3)OC(CO)C(OC3OC(CO)C(O)C3O)C2O)C(O)C(O)C1O (stereo not given in full),0.995 µM (active),0.762 µM (active),1.01 µM (active),0.619 µM (active),1.23 µM (inactive),0.895,0.989 µM (active),0.91 µM (active),0.877 µM (active),0.805 µM (active),0.724 µM (active),0.836 µM (active),0.366 µM (active),0.855 µM (active),0.867 µM (active),0.867 µM (active),0.16 µM (active),0.908 µM (active),0.724 µM (active),0.865 µM (active)
COC(=O)[C@H](Cc1ccccc1)NC(=O)c1ccc(CNC(=O)/C=C/c2csc(-c3ccccc3)n2)cc1,3.24 µM (inactive),11.8 µM (inactive),3.88 µM (inactive),8.11 µM (inactive),1.93 µM (inactive),7.35,19.3 µM (inactive),21.2 µM (inactive),3.24 µM (inactive),14.6 µM (inactive),11 µM (inactive),13.8 µM (inactive),3.91 µM (inactive),8.28 µM (inactive),46 µM (inactive),7.82 µM (inactive),3.89 µM (inactive),1.93 µM (inactive),7.74 µM (inactive),8.02 µM (inactive)
N#C[BH2-][n+]1ccc(C(=O)NNCC(F)(F)F)cc1,> 100 µM (inactive),> 100 µM (inactive),> 100 µM (inactive),> 100 µM (inactive),> 100 µM (inactive),> 100,> 100 µM (inactive),> 100 µM (inactive),> 100 µM (inactive),> 100 µM (inactive),> 100 µM (inactive),> 100 µM (inactive),> 100 µM (inactive),> 100 µM (inactive),> 100 µM (inactive),> 100 µM (inactive),> 100 µM (inactive),> 100 µM (inactive),> 100 µM (inactive),> 100 µM (inactive)
N#CSc1ccc(S(N)(=O)=O)cc1,10.7 µM (inactive),> 100 µM (inactive),> 100 µM (inactive),17.4 µM (inactive),35.2 µM (inactive),40.4,75.5 µM (inactive),> 100 µM (inactive),83.6 µM (inactive),70 µM (inactive),> 100 µM (inactive),> 100 µM (inactive),> 100 µM (inactive),29.6 µM (inactive),> 100 µM (inactive),56.5 µM (inactive),8.07 µM (inactive),> 100 µM (inactive),26.5 µM (inactive),26.1 µM (inactive)
COC(=O)[C@]12CCC(C)(C)C[C@H]1[C@H]1C(=O)C=C3[C@@]4(C)C=C(C#N)C(=O)C(C)(C)[C@@H]4CC[C@@]3(C)[C@]1(C)CC2 [BARDOXOLONE METHYL],0.0728 µM (active),0.0408 µM (active),0.0769 µM (active),0.0232 µM (active),0.0205 µM (active),0.0178,0.0269 µM (active),0.0188 µM (active),0.0667 µM (active),0.0145 µM (active),0.139 µM (active),0.0156 µM (active),0.0112 µM (active),0.0285 µM (active),0.0346 µM (active),0.0273 µM (active),< 0.01 µM (active),0.0455 µM (active),< 0.0104 µM (active),0.0247 µM (active)
